In US10138271B2, “Native and agonist CTL epitopes of the MUC1 tumor antigen” (The United States of America, as represented by the …, priority 2012, dated 2018):

Key:
Type in all cases: cell-based, human
[1] = test system: MUC1-C specific T-cell lines; experiment: Cytokine production by MUC1-C specific T-cell lines with peptide-pulsed autologous B-cells (Multi-array)
Procedure: 2.2×10^6 T-cells and 5.5×10^6 autologous B-cells pulsed with peptide P432-3F10K or P483-2L3F were incubated for 24 h in […] medium per well. The supernatants were analyzed by Multi-array technology (Meso Scale Diagnostics, Gaitersburg, Md.) for detection of cytokines.
To test the ability of the MUC1-C peptides to induce cytokine production, P432-3F10K and P483-2L3F specific T-cell lines (1.1×10^6 T cells/mL) from two patients from the PANVAC ovarian cancer clinical trial described in Example 6 were incubated for 24 hours with autologous B-cells pulsed with P432-3F10K or P483-2L3F for 24 hours. The cytokine levels in supernatant of stimulated and unstimulated cells were evaluated.

[2] = test system: CD8+ T cells in PBMCs from cancer patients; experiment: Tetramer staining of patient PBMCs after 2 IVS cycles with peptide
Procedure: (§1) Phycoerythrin (PE) labeled HLA-A3-P432-3F10K and HLA-A3-P483-2L3F tetramers were prepared by the NIH Tetramer Core Facility (Atlanta, Ga.), and PE labeled MHC class I human negative tetramer (Kit No T01044) was obtained from Beckman Coulter Inc (Sykesville, Md.). […] The tetramers were used at a 1:100 dilution, and cells were stained for 45 minutes at 4° C. 1×10^5 cells were acquired on an LSRII (BD), and data was analyzed using FlowJo 9.0.1 software (Tree Star Inc, Ashland, Oreg.).
PBMCs from three patients from the clinical vaccine trial were stimulated for 2 IVS cycles with the autologous dendritic cells exposed to peptide P432-3F10K or P483-2L3F, and one week after the last stimulation the cells were subjected to FACS analysis after staining with CD8-FITC (20 μL) and either P432-3F10K/P483-2L3F-tetramer-PE (1 μL) or negative tetramer-PC (1 μL) for 45 minutes.
Results in Tables 9 and 10 are expressed as the frequency of tetramer positive cells from all CD8^+ T-cells.

[3] = test system: CD8+ T-cells in PBMCs from carcinoma patients; experiment: IFNγ ELISPOT assay, precursor frequency of specific T-cells in patient PBMCs; conditions: for Patients with specific IFNγ production upon stimulation with peptide: PBMCs pre and three months postvaccination; for Precursor frequency of specific T-cells: peptide 25 μg/mL
Procedure: Measurement of CD8 immune responses in HLA-A3^+ patients was conducted by enzyme-linked immunosorbent spot assay (ELISPOT) using a modification of the procedure described in Arlen et al., Cancer Immunol. Immunother., 49: 517-529 (2000). The assay was performed using K562-A3 cells as APC. ELISPOT measures the frequency of T cells releasing IFNγ in response to stimulation with a peptide. P432-3F10K, P483-2L3F, no peptide, or an HIV gag peptide (SEQ ID NO: 25; a negative control) were used. Pre- and Post-vaccination PBMCs from each patient were compared. A positive response was scored as a ≥2-fold increase in IFNγ-secreting cells. The spots were analyzed using an ImmunoSpot counter (Cellular Technology Ltd, Shaker Heights, Ohio).
To evaluate the presence of CD8^+ T-cells reactive to the P432-3F10K and P483-2L3F peptides in PBMCs from carcinoma patients enrolled in the clinical vaccine trial, an IFNγ ELISPOT assay was performed. The P432-3F10K and P483-2L3F peptides were used in an ELISPOT assay at a concentration of 25 μg/mL to determine the precursor frequency of specific T-cells. Peptide-pulsed K562-A3 cells were used as APC at an effector:APC ratio of 1:2. HIV peptide and no peptide were used as controls.

[4] = test system: MUC1-C specific CD8+ T-cells; experiment: HLA-A3 tetramer analysis of T-cell lines; conditions: T-cell line after 6 IVS cycles
Procedure: as §1
To determine the frequency of MUC1-C specific CD8^+ T-cells in the T-cell lines generated with peptides P432-3F10K and P483-2L3F, HLA-A3-P432-3F10K tetramer and HLA-A3-P483-2L3F tetramer analysis was used. After 6 IVS cycles, 20% and 16% of the T-cells bound to the P432-3F10K and P483-2L3F tetramer, respectively. 0.01% and 0.04% of the cells bound to a negative tetramer.

Sequence: ALFIVYLIAK [Peptide P432-3F10K]
- IFNγ ([1]; Patient I, IVS 7): 350 pg/mL
- IL-2 ([1]; Patient I, IVS 7): 40 pg/mL
- IL-6 ([1]; Patient I, IVS 7): 16 pg/mL
- IL-12p70 ([1]; Patient I, IVS 7): 5 pg/mL
- TNFα ([1]; Patient I, IVS 7): 180 pg/mL
- IFNγ ([1]; Patient II, IVS 8): 50 pg/mL
- IL-2 ([1]; Patient II, IVS 8): 3 pg/mL
- IL-6 ([1]; Patient II, IVS 8): 80 pg/mL
- IL-12p70 ([1]; Patient II, IVS 8): 7 pg/mL
- TNFα ([1]; Patient II, IVS 8): 130 pg/mL
- Frequency of tetramer positive cells from all CD8+ T-cells ([2]; patient III post-vaccination): 59.9%
- Frequency of tetramer positive cells from all CD8+ T-cells ([2]; patient III pre-vaccination): 44.5%
- Frequency of tetramer positive cells from all CD8+ T-cells ([2]; patient IV post-vaccination): 23.8%
- Frequency of tetramer positive cells from all CD8+ T-cells ([2]; patient IV pre-vaccination): 22.0%
- Frequency of tetramer positive cells from all CD8+ T-cells ([2]; patient V post-vaccination): 22.0%
- Frequency of tetramer positive cells from all CD8+ T-cells ([2]; patient V pre-vaccination): 31.5%
- Patients with specific IFNγ production upon stimulation with peptide [3]: 5 of 11
- Precursor frequency of specific T-cells ([3]; Patient II, Post): 1/2372
- Precursor frequency of specific T-cells ([3]; Patient II, Pre): 1/6316
- Precursor frequency of specific T-cells ([3]; Patient III, Post): 1/5455
- Precursor frequency of specific T-cells ([3]; Patient III, Pre): 1/6522
- Precursor frequency of specific T-cells ([3]; Patient IV, Post): 1/1322
- Precursor frequency of specific T-cells ([3]; Patient IV, Pre): 1/2000
- Precursor frequency of specific T-cells ([3]; Patient IX, Post): <1/200000
- Precursor frequency of specific T-cells ([3]; Patient IX, Pre): <1/200000
- Precursor frequency of specific T-cells ([3]; Patient V, Post): <1/200000
- Precursor frequency of specific T-cells ([3]; Patient V, Pre): <1/200000
- Precursor frequency of specific T-cells ([3]; Patient VI, Post): 1/21429
- Precursor frequency of specific T-cells ([3]; Patient VI, Pre): 1/4511
- Precursor frequency of specific T-cells ([3]; Patient VII, Post): <1/200000
- Precursor frequency of specific T-cells ([3]; Patient VII, Pre): <1/200000
- Precursor frequency of specific T-cells ([3]; Patient VIII, Post): <1/200000
- Precursor frequency of specific T-cells ([3]; Patient VIII, Pre): <1/200000
- Precursor frequency of specific T-cells ([3]; Patient X, Post): <1/200000
- Precursor frequency of specific T-cells ([3]; Patient X, Pre): <1/200000
- Precursor frequency of specific T-cells ([3]; Patient XI, Post): 1/7229
- Precursor frequency of specific T-cells ([3]; Patient XI, Pre): 1/4196
- T-cells bound to peptide/HLA-A3 tetramer [4]: 20%

Sequence: SLFRSPYEK [Peptide P483-2L3F]
- IFNγ ([1]; Patient I, IVS 7): 180 pg/mL
- IL-2 ([1]; Patient I, IVS 7): 7 pg/mL
- IL-6 ([1]; Patient I, IVS 7): 12 pg/mL
- IL-12p70 ([1]; Patient I, IVS 7): 5 pg/mL
- TNFα ([1]; Patient I, IVS 7): 46 pg/mL
- IFNγ ([1]; Patient II, IVS 8): 2590 pg/mL
- IL-2 ([1]; Patient II, IVS 8): 15 pg/mL
- IL-6 ([1]; Patient II, IVS 8): 150 pg/mL
- IL-12p70 ([1]; Patient II, IVS 8): 9 pg/mL
- TNFα ([1]; Patient II, IVS 8): 470 pg/mL
- Frequency of tetramer positive cells from all CD8+ T-cells ([2]; patient III post-vaccination): 80.9%
- Frequency of tetramer positive cells from all CD8+ T-cells ([2]; patient III pre-vaccination): 64.7%
- Frequency of tetramer positive cells from all CD8+ T-cells ([2]; patient IV post-vaccination): 65.7%
- Frequency of tetramer positive cells from all CD8+ T-cells ([2]; patient IV pre-vaccination): 45.5%
- Frequency of tetramer positive cells from all CD8+ T-cells ([2]; patient V post-vaccination): 43.8%
- Frequency of tetramer positive cells from all CD8+ T-cells ([2]; patient V pre-vaccination): 53.5%
- Patients with specific IFNγ production upon stimulation with peptide [3]: No patient had a specific reaction
- Precursor frequency of specific T-cells ([3]; Patient II, Post): <1/200000
- Precursor frequency of specific T-cells ([3]; Patient II, Pre): <1/200000
- Precursor frequency of specific T-cells ([3]; Patient III, Post): <1/200000
- Precursor frequency of specific T-cells ([3]; Patient III, Pre): <1/200000
- Precursor frequency of specific T-cells ([3]; Patient IV, Post): <1/200000
- Precursor frequency of specific T-cells ([3]; Patient IV, Pre): <1/200000
- Precursor frequency of specific T-cells ([3]; Patient IX, Post): <1/200000
- Precursor frequency of specific T-cells ([3]; Patient IX, Pre): <1/200000
- Precursor frequency of specific T-cells ([3]; Patient V, Post): <1/200000
- Precursor frequency of specific T-cells ([3]; Patient V, Pre): <1/200000
- Precursor frequency of specific T-cells ([3]; Patient VI, Post): <1/200000
- Precursor frequency of specific T-cells ([3]; Patient VI, Pre): <1/200000
- Precursor frequency of specific T-cells ([3]; Patient VII, Post): <1/200000
- Precursor frequency of specific T-cells ([3]; Patient VII, Pre): <1/200000
- Precursor frequency of specific T-cells ([3]; Patient VIII, Post): <1/200000
- Precursor frequency of specific T-cells ([3]; Patient VIII, Pre): <1/200000
- Precursor frequency of specific T-cells ([3]; Patient X, Post): <1/200000
- Precursor frequency of specific T-cells ([3]; Patient X, Pre): <1/200000
- Precursor frequency of specific T-cells ([3]; Patient XI, Post): <1/200000
- Precursor frequency of specific T-cells ([3]; Patient XI, Pre): <1/200000
- T-cells bound to peptide/HLA-A3 tetramer [4]: 16%
